Conditions: isolated solid

CC(C)C(=O)[O-].NCCN.[Ag+] [ethylenediamine silver isobutyrate]
hygroscopicity (hydroscopic [sic]): hydroscopic
